Our source for the IC50 values is ChEMBL document CHEMBL3639072, “Heterocyclic derivatives and their use in the treatment of neurological disorders” (2014).

pIC50: −log10 of the molar value.

The target of one experiment is Beta-secretase 1 (Homo sapiens, UniProt P56817).
The next experiment concerns the target T1, Beta-secretase 2 (Homo sapiens, UniProt Q9Y5Z0).
T1 sequence (Q9Y5Z0 whole entry): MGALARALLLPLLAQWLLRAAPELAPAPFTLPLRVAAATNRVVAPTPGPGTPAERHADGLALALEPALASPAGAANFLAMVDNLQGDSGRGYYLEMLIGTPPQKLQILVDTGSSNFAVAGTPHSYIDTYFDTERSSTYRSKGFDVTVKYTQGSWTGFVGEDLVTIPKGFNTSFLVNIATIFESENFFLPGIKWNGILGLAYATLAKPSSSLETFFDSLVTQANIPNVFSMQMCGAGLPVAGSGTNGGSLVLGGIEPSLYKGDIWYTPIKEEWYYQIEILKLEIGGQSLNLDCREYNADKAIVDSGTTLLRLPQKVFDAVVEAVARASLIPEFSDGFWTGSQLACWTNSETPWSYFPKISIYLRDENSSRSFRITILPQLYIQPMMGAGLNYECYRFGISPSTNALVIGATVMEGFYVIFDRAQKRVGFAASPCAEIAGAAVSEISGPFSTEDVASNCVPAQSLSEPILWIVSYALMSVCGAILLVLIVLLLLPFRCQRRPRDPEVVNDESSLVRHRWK

Sequence of Beta-secretase 1 (P56817 whole entry): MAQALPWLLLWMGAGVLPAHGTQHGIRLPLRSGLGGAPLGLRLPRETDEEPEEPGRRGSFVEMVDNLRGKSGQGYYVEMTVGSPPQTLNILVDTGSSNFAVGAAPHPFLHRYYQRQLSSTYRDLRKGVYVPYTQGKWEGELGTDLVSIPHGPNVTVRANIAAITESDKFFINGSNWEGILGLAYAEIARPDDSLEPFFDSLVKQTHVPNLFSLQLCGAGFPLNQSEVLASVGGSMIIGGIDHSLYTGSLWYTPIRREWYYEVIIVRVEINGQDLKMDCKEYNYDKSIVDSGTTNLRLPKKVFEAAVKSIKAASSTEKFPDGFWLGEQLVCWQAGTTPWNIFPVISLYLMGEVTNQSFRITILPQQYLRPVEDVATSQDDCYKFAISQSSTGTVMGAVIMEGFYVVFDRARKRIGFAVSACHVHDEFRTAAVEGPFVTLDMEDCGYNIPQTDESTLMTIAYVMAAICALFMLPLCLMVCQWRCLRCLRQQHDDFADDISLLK

As for `Cc1cnc(C(=O)Nc2ccc(F)c([C@]3(C)CO[C@@](C)(C(F)(F)F)C(N)=N3)n2)c(C)n1`, the figures for the pIC50 against Beta-secretase 1 and on Beta-secretase 2 were 6.64 and 6.89, respectively.

`C[C@@]1(c2nc(NC(=O)c3ncc(OCCCF)nc3N)ccc2F)CO[C@@](C)(C(F)(F)F)C(N)=N1`: the figures for the pIC50 on Beta-secretase 1 and on Beta-secretase 2 were 6.70 and 6.00, respectively.
